# From ChEMBL document CHEMBL3885861, “Open TG-GATES”
# Organism: Rattus norvegicus
# Assay: Open TG-GATES - Regimen: Daily Repeat
# Format: toxicity, organism-based, Sprague-Dawley
# Design: regimen Daily Repeat, gender Male, age 6 weeks
# Details: in vivo, po, 0 mg/kg, route gavage, dose level Control; for APTT / Bas / Eos / Fbg / Hb / Ht / Lym / MCH / MCHC / MCV / Mono / Neu / PT / Plat / RBC / Ret / WBC: tissue Blood; for KIDNEY_L / KIDNEY_R / KIDNEY_TOTAL: tissue Kidney; for LIVER: tissue Liver; for A/G / ALP / ALT / AST / BUN / CRE / Ca / Cl / DBIL / GLC / IP / K / LDH / Na / PL / RALB / TBIL / TC / TG / TP / gamma-GTP: tissue Plasma
smiles,measurement,setting,value
CC(=O)Oc1cc(C(C)C)c(OCCN(C)C)cc1C [MOXISYLYTE],TERMINAL_BW,"72 h, time 3 day",216.7 g
same,APTT,"72 h, time 3 day",21.2 s
same,Bas,"72 h, time 3 day",0%
same,Eos,"72 h, time 3 day",1%
same,Fbg,"72 h, time 3 day",327.4 mg/dL
same,Hb,"72 h, time 3 day",13.7 g/dL
same,Ht,"72 h, time 3 day",39.2%
same,Lym,"72 h, time 3 day",81.2%
same,MCH,"72 h, time 3 day",20.9 pg
same,MCHC,"72 h, time 3 day",34.9%
same,MCV,"72 h, time 3 day",59.9 fL
same,Mono,"72 h, time 3 day",2.4%
same,Neu,"72 h, time 3 day",14.2%
same,PT,"72 h, time 3 day",16.5 s
same,Plat,"72 h, time 3 day",116.4 x10_4/uL
same,RBC,"72 h, time 3 day",655.4 x10_4/ul
same,Ret,"72 h, time 3 day",6.2%
same,WBC,"72 h, time 3 day",102.1 x10_2/uL
same,KIDNEY_L,"72 h, time 3 day",0.9 g
same,KIDNEY_R,"72 h, time 3 day",1 g
same,KIDNEY_TOTAL,"72 h, time 3 day",1.9 g
same,LIVER,"72 h, time 3 day",10.3 g
same,A/G,"72 h, time 3 day",1.2
same,ALP,"72 h, time 3 day",1472.6 IU/L
same,ALT,"72 h, time 3 day",42.8 IU/L
same,AST,"72 h, time 3 day",70.4 IU/L
same,BUN,"72 h, time 3 day",17.2 mg/dL
same,CRE,"72 h, time 3 day",0.2 mg/dL
same,Ca,"72 h, time 3 day",10.8 mg/dL
same,Cl,"72 h, time 3 day",106.6 meq/L
same,DBIL,"72 h, time 3 day",0.004 mg/dL
same,GLC,"72 h, time 3 day",181.4 mg/dL
same,IP,"72 h, time 3 day",7 mg/dL
same,K,"72 h, time 3 day",4.2 meq/L
same,LDH,"72 h, time 3 day",202.6 IU/L
same,Na,"72 h, time 3 day",142.4 meq/L
same,PL,"72 h, time 3 day",154.2 mg/dL
same,RALB,"72 h, time 3 day",3.1 g/dL
same,TBIL,"72 h, time 3 day",0.014 mg/dL
same,TC,"72 h, time 3 day",75.8 mg/dL
same,TG,"72 h, time 3 day",97 mg/dL
same,TP,"72 h, time 3 day",5.7 g/dL
same,gamma-GTP,"72 h, time 3 day",1 IU/L
same,TERMINAL_BW,"[…], time 7 day",251.3 g
same,TERMINAL_BW,"[…], time 14 day",305.9 g
same,TERMINAL_BW,"[…], time 28 day",397.2 g
same,APTT,"[…], time 7 day",22.9 s
same,Bas,"[…], time 7 day",0%
same,Eos,"[…], time 7 day",0.6%
same,Fbg,"[…], time 7 day",294.6 mg/dL
same,Hb,"[…], time 7 day",13.6 g/dL
same,Ht,"[…], time 7 day",39%
same,Lym,"[…], time 7 day",81.4%
same,MCH,"[…], time 7 day",20.7 pg
same,MCHC,"[…], time 7 day",34.8%
same,MCV,"[…], time 7 day",59.5 fL
same,Mono,"[…], time 7 day",2%
same,Neu,"[…], time 7 day",15%
same,PT,"[…], time 7 day",15.6 s
same,Plat,"[…], time 7 day",119.6 x10_4/uL
same,RBC,"[…], time 7 day",656.8 x10_4/ul
same,Ret,"[…], time 7 day",5.1%
same,WBC,"[…], time 7 day",75.9 x10_2/uL
same,APTT,"[…], time 14 day",22.6 s
same,Bas,"[…], time 14 day",0%
same,Eos,"[…], time 14 day",1%
same,Fbg,"[…], time 14 day",308.2 mg/dL
same,Hb,"[…], time 14 day",15.1 g/dL
same,Ht,"[…], time 14 day",41.2%
same,Lym,"[…], time 14 day",79.4%
same,MCH,"[…], time 14 day",21.6 pg
same,MCHC,"[…], time 14 day",36.6%
same,MCV,"[…], time 14 day",59 fL
same,Mono,"[…], time 14 day",2%
same,Neu,"[…], time 14 day",16.4%
same,PT,"[…], time 14 day",16.1 s
same,Plat,"[…], time 14 day",118 x10_4/uL
same,RBC,"[…], time 14 day",699.2 x10_4/ul
same,Ret,"[…], time 14 day",5%
same,WBC,"[…], time 14 day",125 x10_2/uL
same,APTT,"[…], time 28 day",24 s
same,Bas,"[…], time 28 day",0%
same,Eos,"[…], time 28 day",1%
same,Fbg,"[…], time 28 day",320.8 mg/dL
same,Hb,"[…], time 28 day",14.4 g/dL
same,Ht,"[…], time 28 day",40.5%
same,Lym,"[…], time 28 day",82.2%
same,MCH,"[…], time 28 day",19.4 pg
same,MCHC,"[…], time 28 day",35.5%
same,MCV,"[…], time 28 day",54.7 fL
same,Mono,"[…], time 28 day",1.8%
same,Neu,"[…], time 28 day",13.5%
same,PT,"[…], time 28 day",15.9 s
same,Plat,"[…], time 28 day",100.5 x10_4/uL
same,RBC,"[…], time 28 day",741 x10_4/ul
same,Ret,"[…], time 28 day",3.1%
same,WBC,"[…], time 28 day",119.2 x10_2/uL
same,KIDNEY_L,"[…], time 7 day",1.1 g
same,KIDNEY_R,"[…], time 7 day",1.1 g
same,KIDNEY_TOTAL,"[…], time 7 day",2.1 g
same,KIDNEY_L,"[…], time 14 day",1.2 g
same,KIDNEY_R,"[…], time 14 day",1.3 g
same,KIDNEY_TOTAL,"[…], time 14 day",2.5 g
same,KIDNEY_L,"[…], time 28 day",1.5 g
same,KIDNEY_R,"[…], time 28 day",1.5 g
same,KIDNEY_TOTAL,"[…], time 28 day",3 g
same,LIVER,"[…], time 7 day",11.2 g
same,LIVER,"[…], time 14 day",13.3 g
same,LIVER,"[…], time 28 day",16.3 g
same,A/G,"[…], time 7 day",1.3
same,ALP,"[…], time 7 day",1660 IU/L
same,ALT,"[…], time 7 day",40.4 IU/L
same,AST,"[…], time 7 day",71.2 IU/L
same,BUN,"[…], time 7 day",18 mg/dL
same,CRE,"[…], time 7 day",0.2 mg/dL
same,Ca,"[…], time 7 day",10.7 mg/dL
same,Cl,"[…], time 7 day",106.6 meq/L
same,DBIL,"[…], time 7 day",0 mg/dL
same,GLC,"[…], time 7 day",189.2 mg/dL
same,IP,"[…], time 7 day",6.7 mg/dL
same,K,"[…], time 7 day",4.1 meq/L
same,LDH,"[…], time 7 day",219.2 IU/L
same,Na,"[…], time 7 day",142.6 meq/L
same,PL,"[…], time 7 day",155.2 mg/dL
same,RALB,"[…], time 7 day",3 g/dL
same,TBIL,"[…], time 7 day",0.004 mg/dL
same,TC,"[…], time 7 day",72.2 mg/dL
same,TG,"[…], time 7 day",138 mg/dL
same,TP,"[…], time 7 day",5.4 g/dL
same,gamma-GTP,"[…], time 7 day",1.4 IU/L
same,A/G,"[…], time 14 day",1.1
same,ALP,"[…], time 14 day",1709.2 IU/L
same,ALT,"[…], time 14 day",40 IU/L
same,AST,"[…], time 14 day",71.4 IU/L
same,BUN,"[…], time 14 day",20 mg/dL
same,CRE,"[…], time 14 day",0.2 mg/dL
same,Ca,"[…], time 14 day",10.7 mg/dL
same,Cl,"[…], time 14 day",106.2 meq/L
same,DBIL,"[…], time 14 day",0 mg/dL
same,GLC,"[…], time 14 day",197.6 mg/dL
same,IP,"[…], time 14 day",6 mg/dL
same,K,"[…], time 14 day",4.2 meq/L
same,LDH,"[…], time 14 day",170.8 IU/L
same,Na,"[…], time 14 day",141.4 meq/L
same,PL,"[…], time 14 day",148.4 mg/dL
same,RALB,"[…], time 14 day",3.1 g/dL
same,TBIL,"[…], time 14 day",0.008 mg/dL
same,TC,"[…], time 14 day",75.4 mg/dL
same,TG,"[…], time 14 day",114.6 mg/dL
same,TP,"[…], time 14 day",5.7 g/dL
same,gamma-GTP,"[…], time 14 day",1.4 IU/L
same,A/G,"[…], time 28 day",1.1
same,ALP,"[…], time 28 day",1031.5 IU/L
same,ALT,"[…], time 28 day",47.5 IU/L
same,AST,"[…], time 28 day",81.5 IU/L
same,BUN,"[…], time 28 day",17.5 mg/dL
same,CRE,"[…], time 28 day",0.2 mg/dL
same,Ca,"[…], time 28 day",10.3 mg/dL
same,Cl,"[…], time 28 day",104.5 meq/L
same,DBIL,"[…], time 28 day",0.0025 mg/dL
same,GLC,"[…], time 28 day",201.5 mg/dL
same,IP,"[…], time 28 day",6.9 mg/dL
same,K,"[…], time 28 day",4.1 meq/L
same,LDH,"[…], time 28 day",261 IU/L
same,Na,"[…], time 28 day",141 meq/L
same,PL,"[…], time 28 day",134.2 mg/dL
same,RALB,"[…], time 28 day",3 g/dL
same,TBIL,"[…], time 28 day",0.0025 mg/dL
same,TC,"[…], time 28 day",64.5 mg/dL
same,TG,"[…], time 28 day",116.5 mg/dL
same,TP,"[…], time 28 day",5.9 g/dL
same,gamma-GTP,"[…], time 28 day",1.5 IU/L
